The results in this text go back to patent US5808060A, “Fused isoindolones” (Cephalon, Inc., priority 1996, dated 1998).

Test [1] has as its system basal forebrain cultures (ChAT activity). The test is described as follows: Basal Forebrain ChAT Activity Assay. The following applies: preliminary assays; ChAT assessed 5 days after plating. The test is classed as cell-based, rat. Here is the method: Fused isoindolone derivatives were tested for the ability to increase ChAT activity of basal forebrain cultures.
Methods: The basal forebrain was dissected from rat embryos (day 17 or 18 embryos) and the cells were dissociated with a neutral protease (Dispase™, Collaborative Research). Neurons were plated at a density of 5×10^4 cells/well (1.5×10^5 cells/cm^2) in poly-l-ornithine and laminin coated plates. Cells were cultured in serum-free N2 medium containing 0.05% BSA at 37° C. in a humidified atmosphere, 5% CO2 /95% air. ChAT activity was assessed 5 days after plating by using the ChAT assay as described in Example III(A)(1).

The test system of test [2] is dissociated rat embryonic spinal cord culture (ChAT activity). Nature of the test: Spinal Cord ChAT Activity Assay. The test is classed as cell-based. The following applies: after 2-3 hour plating period; single application; ChAT measured 48 hours later; control cultures not treated. From the text:
As noted, ChAT is a specific biochemical marker for functional cholinergic neurons. Cholinergic neurons represent the major cholinergic input into the hippocampal formation, olfactory nucleus, interpeduncular nucleus, cortex, amygdala, and parts of the thalamus. In the spinal cord, the motor neurons are cholinergic neurons which contain ChAT (Phelps et al., J. Comp. Neurol. 273: 459-472 (1988)). ChAT activity has been used to study the effects of neurotrophins (e.g., NGF or NT-3) on the survival and/or function of cholinergic neurons. The ChAT assay also serves as an indication of the regulation of ChAT levels within cholinergic neurons.
Fused isoindolone derivatives increased ChAT activity in the dissociated rat embryonic spinal cord culture assay (FIG. 1). […]
Methods: Fetal rat spinal cord cells were dissociated, and experiments were performed as described (Smith et al., J. Cell Biology 101: 1608-1621 (1985); Glicksman et al., J. Neurochem. 61: 210-221 (1993)). […] ChAT activity was measured after 2 days in vitro using a modification of the Fonnum procedure (Fonnum, J. Neurochem. 24: 407-409 (1975)) according to McManaman et al. and Glicksman et al. (McManaman et al., Developmental Biology 125: 311-320 (1988); Glicksman et al., J. Neurochem. 61: 210-221 (1993)).

A further test deals with protein kinase C. The test is described as follows: PKC Activity Inhibition Assay. The test is classed as biochemical. Here is the method:
Fused isoindolones inhibited the activity of protein kinase C (Table VI). The protein kinase C assay has been disclosed (Murakata et al., U.S. Pat. No. 4,923,986; Kikkawa et al., J. Biol. Chem. 257: 13341-13348 (1982)). The assay was performed with several concentrations of fused isoindolones. The concentration at which protein kinase C was 50% inhibited (IC50) was determined.

The target of a further test is trkA tyrosine kinase (Homo sapiens, UniProt P04629). Nature of the test: trkA Tyrosine Kinase Activity Inhibition Assay (ELISA). The format is biochemical. The note with it: PLCγ/pGEX substrate, 16 μM ATP, 37° C., 15 min, read-out: trk A INHIBITION IC50. Here is the method: Fused isoindolones inhibited trkA tyrosine kinase activity as determined by ELISA. trkA is a high affinity receptor for neurotrophins. Fused isoindolones were added to 96-well microtiter plates that were previously coated with a phosphorylation substrate (phospholipase C-γ (PLCγ)/pGEX fusion protein) (see Rotin, et al., 11 EMBO J. 559, 1992). These compounds were then tested for the ability to inhibit substrate phosphorylation by the trkA tyrosine kinase.
Methods: 96-well ELISA plates (Nunc) were coated with 100 μl/well of the phosphorylation substrate (40 μg/ml) PLCγ/pGEX fusion protein) in 20 mM Tris, pH 7.6, 137 mM NaCl, and 0.02% NaN3 overnight at 4° C. […] Plates were washed three times with TBST, followed by two washes with TBS (TBST sans Tween-20). Fused pyrrolocarbozoles were then added at various concentrations to a reaction mixture (50 mM HEPES, pH 7.4, 5 mM MnCl2, 5 mM MgCl2, 140 mM NaCl, 16 μM ATP, and 15 ng trkA in a total volume of 100 μL.). As a negative control, 100 mM EDTA was included in the reaction solution. The plates were then incubated at 37° C. for 15 min. The detection antibody, monoclonal anti-phosphotyrosine antibody (UBI), was added at a dilution of 1:2000 in TBST, and incubated for 1 hour at 37° C. […] The colored product was read at 490 nm in a microplate reader (Biotek).
On the technique in general: In an ELISA, binding on a coated surface is turned into a signal by an enzyme label.

Structures are written as SMILES.

Chain of trkA tyrosine kinase (P04629 33-796): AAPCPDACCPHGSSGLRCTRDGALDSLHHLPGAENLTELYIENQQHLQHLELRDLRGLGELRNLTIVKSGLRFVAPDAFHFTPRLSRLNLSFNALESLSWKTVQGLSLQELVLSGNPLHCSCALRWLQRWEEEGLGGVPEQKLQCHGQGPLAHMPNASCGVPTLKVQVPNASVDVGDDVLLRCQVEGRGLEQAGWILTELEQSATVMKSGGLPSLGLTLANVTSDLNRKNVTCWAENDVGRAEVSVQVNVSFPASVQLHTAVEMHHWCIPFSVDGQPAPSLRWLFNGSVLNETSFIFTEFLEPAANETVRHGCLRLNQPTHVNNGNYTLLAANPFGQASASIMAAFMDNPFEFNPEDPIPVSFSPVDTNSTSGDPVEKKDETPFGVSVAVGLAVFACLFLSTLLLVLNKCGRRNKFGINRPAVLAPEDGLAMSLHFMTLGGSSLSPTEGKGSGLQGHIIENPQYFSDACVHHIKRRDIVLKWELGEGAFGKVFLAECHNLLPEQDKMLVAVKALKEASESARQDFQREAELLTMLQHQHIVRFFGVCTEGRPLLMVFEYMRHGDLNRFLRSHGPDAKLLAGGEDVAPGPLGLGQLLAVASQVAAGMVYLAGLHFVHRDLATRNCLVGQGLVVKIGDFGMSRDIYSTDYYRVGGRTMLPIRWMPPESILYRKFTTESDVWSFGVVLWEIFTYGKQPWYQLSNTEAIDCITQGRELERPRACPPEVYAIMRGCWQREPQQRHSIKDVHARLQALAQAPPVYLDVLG

With `O=C1NCc2c1c1c3ccccc3sc1c1sc3ccccc3c21` [Compound I-4, Benzothieno[2,3-c]benzothieno[2,3-e]isoindol-1-one], the “effect on basal forebrain ChAT activity” value in test [1] is “did not increase ChAT activity”.
Take `O=C1NCc2c1c1c(c3c2-c2ccccc2C3)Cc2ccccc2-1` [Compound I-2, 1H-Indenyl[2,3-c]-1H-indenyl[2,3-e]-3H-isoindol-1-one]: in test [2], the “increased ChAT activity over control cultures (spinal cord)” value worked out at 150 % over control. Besides, the IC50 (as a rule, the concentration at which inhibition is half-maximal) against protein kinase C turned out to be 2000 nM; at trkA tyrosine kinase, 190 nM.
Compound `O=C1NC(=O)c2c1c1c(c3c2-c2ccccc2C3)Cc2ccccc2-1` [Compound I-1, 1H-Indenyl[2,3-c]-1H-indenyl[2,3-e]isoindol-1,3-dione] registered an IC50 against protein kinase C of 650 nM.
Consider `O=C1NC(=O)c2c1c1c3ccccc3sc1c1sc3ccccc3c21` [Compound I-3, Benzothieno[2,3-c]benzothieno[2,3-e]isoindol-1,3-dione], for which the “effect on basal forebrain ChAT activity” value in test [1] is given as “did not increase ChAT activity”.
